Values belong to the molecule of their own block, whether it stands above or below them.
Experiments:
Balb/c mice = assay: Forced-swim test in Balb/c mice; assay type: in vivo, mouse; details: for duration of immobility in the forced-swim test: acute, i.p. 30 min prior; for immobility in the forced-swim test vs vehicle: subchronic, i.p. 23, 5 and 1 hr prior
ICR mice = assay: Forced-swim test in ICR mice; assay type: in vivo, mouse; details: for immobility in the forced-swim test vs vehicle: 3 mg/kg, P < 0.05; for duration of immobility in the forced-swim test: doses of 0.3 and 3 mg/kg
Human PDE4D3 = Human PDE4D3 (Homo sapiens, UniProt Q08499); assay: Inhibition of cAMP hydrolysis by recombinant PDE4D3; assay type: biochemical; details: read-out: Human PDE4D3 Ki, recombinant enzyme
Sequence of Human PDE4D3 (Q08499 1-673 isoform Q08499-2): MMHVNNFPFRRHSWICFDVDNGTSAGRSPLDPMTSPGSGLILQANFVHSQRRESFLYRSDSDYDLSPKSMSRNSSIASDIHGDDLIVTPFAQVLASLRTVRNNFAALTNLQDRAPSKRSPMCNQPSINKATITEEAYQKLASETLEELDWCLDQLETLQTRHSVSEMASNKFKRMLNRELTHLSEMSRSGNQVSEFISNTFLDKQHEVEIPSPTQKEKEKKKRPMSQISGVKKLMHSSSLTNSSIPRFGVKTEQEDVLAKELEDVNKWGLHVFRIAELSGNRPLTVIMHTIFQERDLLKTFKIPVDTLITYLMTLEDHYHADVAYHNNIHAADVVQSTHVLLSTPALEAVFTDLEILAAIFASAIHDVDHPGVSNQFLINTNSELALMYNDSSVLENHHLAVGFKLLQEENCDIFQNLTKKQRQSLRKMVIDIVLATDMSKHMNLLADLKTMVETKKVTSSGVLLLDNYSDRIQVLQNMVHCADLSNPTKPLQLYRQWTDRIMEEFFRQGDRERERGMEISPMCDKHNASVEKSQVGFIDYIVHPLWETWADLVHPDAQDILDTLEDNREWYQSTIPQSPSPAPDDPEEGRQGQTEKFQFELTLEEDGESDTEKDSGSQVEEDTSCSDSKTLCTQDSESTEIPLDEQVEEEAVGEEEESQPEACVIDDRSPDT

[1] = Human liver microsome stability assay; assay type: in vitro ADME; details: human liver microsomes + NADPH, 40 µM compound, 37 °C
[2] = Mouse liver microsome stability assay; assay type: in vitro ADME; details: mouse liver microsomes + NADPH, 40 µM compound, 37 °C
[3] = ICR mice, acute, i.p. 30 min prior

Compound: COc1ccc(F)cc1CCC1CCC(CCN)O1 (stereo not drawn) [Compound 14, 2-{5-[3-(5-Fluoro-2-methoxy-phenyl)-ethyl]-tetrahydro-furan-2-yl}-ethylamine]
duration of immobility in the forced-swim test (Balb/c mice; 10 mg/kg): did not markedly alter the duration of immobility
immobility in the forced-swim test vs vehicle (Balb/c mice; 10 mg/kg): did not change immobility
immobility in the forced-swim test (ICR mice; ICR mice, acute, i.p. 30 min prior, 10 and 30 mg/kg): tended to decrease immobility, but this effect was not statistically significant

Compound: COc1ccc(F)cc1CCCC1CCC(CCN)O1 (stereo not drawn) [Compound 15, 2-{5-[3-(5-Fluoro-2-methoxy-phenyl)-propyl]-tetrahydro-furan-2-yl}-ethylamine]
duration of immobility in the forced-swim test (Balb/c mice; 10 mg/kg): did not markedly alter the duration of immobility
immobility in the forced-swim test vs vehicle (Balb/c mice; 1 mg/kg): did not change immobility

Compound: COc1ccc(C2=NNC(=O)C3CC=CCC23)cc1OC (stereo not drawn) [Compound 19, 4-(3,4-Dimethoxy-phenyl)-4a,5,8,8a-tetrahydro-2H-phthalazin-1-one, reference compound]
Ki (Human PDE4D3): 6.3 nM
immobility in the forced-swim test vs vehicle (ICR mice; [3]): significantly decreased immobility
duration of immobility in the forced-swim test (ICR mice; [3]): decreased duration of immobility in a dose-dependent manner

Compound: COc1ccc(F)cc1CCC1CCC(CCNCCCCCN2N=C(c3ccc(OC)c(OC)c3)[C@H]3CC=CC[C@H]3C2=O)O1 (stereo partly drawn) [Compound 21]
immobility in the forced-swim test vs vehicle (Balb/c mice; 1 mg/kg): did not change immobility
immobility in the forced-swim test vs vehicle (ICR mice; [3]): significantly decreased immobility
duration of immobility in the forced-swim test (ICR mice; [3]): decreased duration of immobility in a dose-dependent manner
HLM t1/2 [1]: not detectably metabolized

Compound: COc1ccc(C2CNC(=O)C2)cc1OC1CCCC1 (stereo not drawn) [Rolipram, reference compound]
effect in the forced-swim test (ICR mice; acute treatment 0.5 mg/kg, data not shown): did not alter FST behavior

Other lines, results leading:

HLM t1/2 [1]: No detectable metabolic instability
Compound: COc1ccc(F)c(CCCC2CCC(CCNCCCCCN3N=C(c4ccc(OC)c(OC)c4)[C@H]4CC=CC[C@H]4C3=O)O2)c1 (stereo partly drawn) [Compound 22]

MLM t1/2 [2]: 58.5 min
Compound: CNCCC1CCC(CCc2cc(F)ccc2OC)O1 (stereo not drawn) [Compound 24]

Source: paper PMC2762440 (Journal of medicinal chemistry, 2009)
